Results reported in US20210261621A1, “Preparation of Dilipid Polymixins and Use Thereof as Antimicrobial Adjuvants” (priority 2018, published 2021).
Where two headings read alike, the source gives them in different places.

Test system: P. aeruginosa PAO1
Parameters: MICDrug / MICDrug in combo / MIC of adjuvant in combo: unit not given beside the values
Conditions: for MICDrug: antibiotic alone
Experimental: The potential of the dilipid polymyxins to serve as an adjuvant in combination with other antibiotics was evaluated against P. aeruginosa PAO1 strain (Tables 4 and 7-12). […] Checkerboard assays were performed with the dilipid polymyxins in combination with twenty-one clinically-used antibiotics. The panel included representatives from the β-lactam, carbapenem, tetracycline, aminoglycoside and fluoroquinolone antibiotic families. Other agents that are used to treat Gram-negative bacterial infection such as fosfomycin, trimethoprim and chloramphenicol were also included. […] Fractional inhibitory concentration (FIC) index was calculated for each combination to measure potential synergism between the two agents. FIC was obtained by dividing the MIC of antibiotic/adjuvant in combination by the MIC of antibiotic/adjuvant alone, while FIC index was calculated by the summation of FIC indices for the antibiotic and adjuvant. An FIC index of ≤0.5, 0.5<x≤4, or >4 denotes for synergistic, additive or antagonistic interaction, respectively. Initially, we assessed the adjuvant properties of PMBN against the panel of 21 antibiotics.
The assay was performed on 96-well plates as previously described. Briefly, the antibiotic at study was 2-fold serially diluted along the x-axis, while the adjuvant was 2-fold serially diluted along the y-axis to create a matrix in which each well consists of a combination of both at different concentrations. Overnight grown bacterial cultures were diluted in saline to 0.5 McFarland turbidity, followed by 1:50 dilution in MHB and inoculation on each well to a final concentration of approximately 5×10^5 colony forming units/mL. Wells containing only MHB with or without bacterial cells were used as positive or negative control, respectively. […] The fractional inhibitory concentration (FIC) of the antibiotic was calculated via dividing the MIC of antibiotic in the presence of adjuvant by the MIC of antibiotic alone. Similarly, the FIC of adjuvant was calculated via dividing the MIC of adjuvant in the presence of antibiotic by the MIC of adjuvant alone. The FIC index was obtained by the summation of both FIC values. The FIC index was then interpreted as synergistic, additive, or antagonistic for values of ≤0.5, 0.5<x<4, or ≥4, respectively.

[1] = antibiotic in combination with 1
[2] = antibiotic in combination with 2
[3] = antibiotic in combination with 3
[4] = antibiotic in combination with 4
[5] = antibiotic in combination with 5
[6] = antibiotic in combination with PMBN

Row | Compound | MICDrug | MICDrug in combo [1] | MICDrug in combo [2] | MICDrug in combo [3] | MICDrug in combo [4] | MICDrug in combo [5] | MICDrug in combo [6]
1 | C[C@@H](O)[C@H]1C(=O)N2C(C(=O)O)=C(S[C@@H]3CN[C@H](CNS(N)(=O)=O)C3)[C@H](C)[C@H]12 [Doripenem, reference compound] | 1 | (0.5) | (0.125) | (0.5) | (0.0625) | (0.5) | (0.25)
2 | COc1cc(Cc2cnc(N)nc2N)cc(OC)c1OC [Trimethoprim, reference compound] | 128 | (16) | (8) | (16) | (0.25) | (16) | (8)
3 | C[C@@H]1O[C@@H]1P(=O)(O)O [Fosfomycin, reference compound] | – | (2) | (0.125) | (8) | (8) | (1) | (2)
4 | CCN1CCN(C(=O)N[C@@H](C(=O)N[C@@H]2C(=O)N3[C@@H]2SC(C)(C)[C@@H]3C(=O)O)c2ccccc2)C(=O)C1=O [Piperacillin, reference compound] | 4 | (2) | (0.0625) | (2) | (4) | (2) | (1)
5 | C[C@@H](O)[C@H]1C(=O)N2C(C(=O)O)=C(S[C@@H]3CN[C@H](C(=O)N(C)C)C3)[C@H](C)[C@H]12 [Meropenem, reference compound] | – | (0.25) | (0.0625) | (0.5) | (0.5) | (0.5) | (0.125)
6 | COc1c(N2C[C@@H]3CCCN[C@@H]3C2)c(F)cc2c(=O)c(C(=O)O)cn(C3CC3)c12 [Moxifloxacin, reference compound] | 1 | (0.125) | (1) | (0.5) | (1) | (0.25) | (0.125)
7 | CC(=O)NC[C@H]1CN(c2ccc(N3CCOCC3)c(F)c2)C(=O)O1 [Linezolid, reference compound] | 1024 | (64) | (1) | (0.25) | (0.25) | (32) | (32)
8 | C[C@H]1c2cccc(O)c2C(=O)C2=C(O)[C@]3(O)C(=O)C(C(N)=O)=C(O)[C@@H](N(C)C)[C@@H]3[C@@H](O)[C@@H]21 [Doxycycline, reference compound] | – | (0.5) | (0.125) | (1) | (4) | (0.25) | (0.25)
9 | CN[C@H](CC(C)C)C(=O)N[C@H]1C(=O)N[C@@H](CC(N)=O)C(=O)N[C@H]2C(=O)N[C@H]3C(=O)N[C@H](C(=O)N[C@H](C(=O)O)c4cc(O)cc(O)c4-c4cc3ccc4O)[C@H](O)c3ccc(c(Cl)c3)Oc3cc2cc(c3O[C@@H]2O[C@H](CO)[C@@H](O)[C@H](O)[C@H]2O[C@H]2C[C@](C)(N)[C@H](O)[C@H](C)O2)Oc2ccc(cc2Cl)[C@H]1O [Vancomycin, reference compound] | 256 | (8) | (2) | (128) | (64) | (2) | (4)
10 | CN(C)c1ccc(O)c2c1C[C@H]1C[C@H]3[C@H](N(C)C)C(O)=C(C(N)=O)C(=O)[C@@]3(O)C(O)=C1C2=O [Minocycline, reference compound] | 16 | (1) | (4) | (2) | (4) | (2) | (0.5)
11 | O=C(N[C@H](CO)[C@H](O)c1ccc([N+](=O)[O-])cc1)C(Cl)Cl [Chloramphenicol, reference compound] | 32 | (2) | (4) | (4) | (4) | (8) | (2)
12 | CO[C@@H]1[C@@H](OC(N)=O)[C@@H](O)[C@H](Oc2ccc3c(O)c(NC(=O)c4ccc(O)c(CC=C(C)C)c4)c(=O)oc3c2C)OC1(C)C [Novobiocin, reference compound] | 512 | (16) | (8) | (0.5) | (2) | (128) | (4)
13 | [H]/N=C(/N)N[C@H]1[C@H](O)[C@@H](O)[C@H](O[C@@H]2O[C@@H](C)[C@](O)(C=O)[C@H]2O[C@@H]2O[C@@H](CO)[C@H](O)[C@@H](O)[C@@H]2NC)[C@@H](N/C(N)=N\[H])[C@@H]1O [Streptomycin, reference compound] | 16 | (8) | (4) | (16) | (16) | (8) | (8)
14 | Gentamicin [reference compound] | 2 | (2) | (4) | (2) | (2) | (4) | (2)
15 | CO[C@H]1/C=C/O[C@@]2(C)Oc3c(C)c(O)c4c(O)c(c(/C=N/N5CCN(C)CC5)c(O)c4c3C2=O)NC(=O)/C(C)=C\C=C\[C@H](C)[C@H](O)[C@@H](C)[C@@H](O)[C@@H](C)[C@H](OC(C)=O)[C@@H]1C [Rifampicin, reference compound] | 16 | – | (8) | (8) | (0.25) | (1) | (0.0625)
16 | C=C[C@]1(C)C[C@@H](OC(=O)CO)[C@]2(C)[C@H](C)CC[C@]3(CCC(=O)[C@H]32)[C@@H](C)[C@@H]1O [Pleuromutilin, reference compound] | 512 | (4) | (4) | (8) | (4) | (2) | (16)
17 | NC[C@H]1O[C@H](O[C@H]2[C@H](O)[C@@H](O[C@H]3O[C@H](CO)[C@@H](O)[C@H](N)[C@H]3O)[C@H](N)C[C@@H]2N)[C@H](N)C[C@@H]1O [Tobramycin, reference compound] | 1 | (1) | (1) | (1) | (1) | (1) | (1)
18 | CC(C)(O/N=C(\C(=O)N[C@@H]1C(=O)N2C(C(=O)[O-])=C(C[n+]3ccccc3)CS[C@H]12)c1csc(N)n1)C(=O)O [Ceftazidime, reference compound] | 2 | (0.25) | (1) | (1) | (0.0625) | (0.25) | (0.25)
